Assay results from patent US20140315738A1, “MARINE MEDAKA GENES RESPONDING TO THE EXPOSURE OF ENDOCRINE-DISRUPTING CHEMICALS, AND METHOD FOR DIAGNOSING AN AQUATIC ECO-SYSTEM CONTAMINATION USING SAME” (priority 2011, published 2014).

Tested on: Javanese medaka (Oryzias javanicus) livers
Assay: real-time quantitative PCR of liver gene expression after exposure to 17β-estradiol
Assay type: in vivo
Details: duration of exposure 24 hr, 100 μg/L, β-actin control gene
Description: To 3 L beaker with 2 L filtered seawater therein, 10 male Javanese medaka bred in culture water tank were transported each time, and acclimated for 24 hr. […] Additionally, five Javanese medaka of Example <1-1> were exposed to BPA (76 μg/L) for 48 hr. […] The Javanese medaka was transported to ice water, one at a time, which momentarily stunned it, followed by beheading and evisceration and liver removal.
Primers for real-time quantitative PCR (RT-PCR) for the above genes were designed and synthesized (Table 3).
With RNA template extracted with the method of Example <2-1>, cDNA was synthesized using AB High Capacity RNA-to-cDNA Kit (Applied Biosystems, USA). RNA in the amount of 1 μg was seeded, added with distilled water and titrated to 9 μl. 2×RT buffer (10 μl), and 20× enzyme Mix 1 μl were mixed well, centrifuged and precipitated, and allowed to react at 37° C. for 60 min. The reactant was heated at 95° C. for 5 min, after which reaction was completed. The synthesized cDNA was stored at −20° C.
To the 0.5 μg synthesized cDNA (corresponding to approximately 10 ng/μl), 0.8 primer pairs of corresponding genes (10 pmol/μl), and 2 SYBR1 mixture (10 μl) were added. The final amount was titrated to 20 μl using distilled water. At temperature condition of 95° C. 10 min, 95° C. 30 sec, 60° C. 30 sec, 72° C. 30 sec, 40 cycles of PCR were conducted.

With `C[C@]12CC[C@@H]3c4ccc(O)cc4CC[C@H]3[C@@H]1CC[C@@H]2O` [17β-estradiol] the “Difference of expression level, Apolipoprotein B (SEQ ID 53)” value was 2.5 times lower, the “Difference of expression level, Cytochrome P450 1A (CYP1A) (SEQ ID 5)” value was 2.7 times lower and the “Difference of expression level, Glucose-6-phosphate dehydrogenase (SEQ ID 55)” value was 2.2 times lower. For the same compound, the “Difference of expression level, Glutamate dehydrogenase 1b (SEQ ID 54)” value was 5.2 times lower, the “Difference of expression level, Selenoprotein M (SEQ ID 8)” value was 7.7 times higher and the “Difference of expression level, Transferrin (SEQ ID 56)” value was 3.6 times lower. The “Difference of expression level, Vitellogenin 1 (SEQ ID 37)” value was 59.1 times higher.
